# Laboratory results as given in US7589177B2, “Nucleic acid molecules encoding cyclotide polypeptides and methods of use” (E.I. du Pont de Nemours & Company, priority 2004, dated 2009).
# Experiments:
# Sclerotinia = Sclerotinia hyphal growth inhibition dose-response assay; type: cell-based, Sclerotinia sclerotiorum; set-up: key: 0: no inhibition of fungal growth; 1: slight inhibition; 2: moderate inhibition; 3: extensive inhibition; 4: total inhibition; settings: 48 hours
# Protocol: To test the activity of cyclotide 2 against Sclerotinia, a Sclerotinia test inoculum was started by inoculating ½ strength PDB liquid with a sterile loop of hyphae from a Sclerotinia culture propagated on a ⅛ strength potato dextrose agar (PDA) plate. This liquid inoculum was held at room temperature (22° C.), without shaking, in the dark for 4 days, to allow sufficient growth of hyphae. The resulting suspension was macerated using a sterile polytron tissue grinder. The sample was then diluted with ½ strength PDB to the point of invisibility to the naked eye (observation under microscopy at 40× indicated the presence of 12-15 hyphal fragments per 50 μL aliquot of inoculum). Then, 50 μL of the inoculum was added to each well of a 96 shallow well bioassay plate.
# The cyclotide sample, following fractionation and lyophilization, was resuspended in 100 μL ½ strength PDB, placed on ice and gently shaken. Then, 50 μL of resuspended sample was added to each corresponding well of the bioassay plate to give a final test volume of 100 μL and […] per well. In the inoculum control wells, 50 μL of inoculum and 50 μL of ½ strength PDB were used, while the media control wells contained 100 μL of ½ strength PDB. The wells were covered with Breathe-Easy membranes (Web Scientific Ltd., Cheshire, U.K.) and placed in the dark on the benchtop.
# For the dose-response assay, lyophilized cyclotide 2 was resuspended in 40 μL of ½ strength PDB solution. Then, 20 μL of the resuspended sample was pipetted into 4 different wells containing either 8 μL, 6 μL, 4 μL or 2 μL of suspension. The final volume in each well was adjusted to 100 μL with the Sclerotinia test inoculum. The plates were covered with Breathe-Easy membranes (Web Scientific Ltd., Cheshire, U.K.) and placed in the dark on the benchtop.
# Caenorhabditis elegans [1] = experiment: Nematocidal activity of cyclotide 2 against C. elegans (dose-response, development score); type: in vivo; settings: fractionated crude extract of Viola spp.
# Caenorhabditis elegans [2] = experiment: as above; type: in vivo; set-up: key to Replicate 1 Score (nematode development) / Replicate 2 Score (nematode development): 1: no development; 2: little development; 5: medium development; 10: full development; settings: for Replicate 1 Score (nematode development) / Replicate 2 Score (nematode development): 50 L1-stage nematodes per well
# Protocol: Samples of cyclotide 2 to be used in a dose-response assay were resuspended in 180 μl distilled H2O to create a stock solution of 161.3 μM. The dose-response assay was carried out in 96 well microtiter plates with each dose prepared in replicates of two. Each assay well contained 50 L1-stage nematodes which had been grown in S-medium (100 mM NaCl, 10 mM K citrate, pH 6.0, 50 mM KHPO4, pH 6.0, 3 mM CaCl2, 3 mM MgCl2, […], […], 10 mM MnCl2, 10 mM ZnSO4, 1 mM CuSO4) and had been allowed to feed on overnight cultured E. coli strain OP50, 30 μg/mL tetracycline and 30 μg/mL chloramphenicol. The total assay volume was 100 μL. The assay was scored at days 3 and 4 (Table 3).
# [3] = test system: Colletotrichum graminaria; experiment: Dose-response fungal growth inhibition assay; type: cell-based; settings: 2500 spores/mL in 1/2 strength PDB, 28° C., scored after 24 and 48 hours
# Protocol: (§1) The anti-fungal activity of cyclotide 2 was tested against the crop pathogens Fusarium verticilloides and Colletotrichum graminaria, and the filamentous fungus Neurospora crassa. To conduct the assay, 100 μL of ½ strength potato dextrose broth (PDB) containing a spore suspension of 2500 spores/mL was added to each well in a 96 well microtiter plate containing dried HPLC fractions. The plates were mixed three times in approximately five minute intervals before incubation at 28° C., and were scored after 24 hours and 48 hours for inhibition of fungal growth. Inhibition of fungal growth was defined as little to no spore germination with no detectable hyphae growth.
# (§2) The dose-response fungal assays were performed by resuspending the lyophilized cyclotide protein sample in 200 μL of a solution which consisted of fungal spores suspended in ½ strength potato dextrose broth (PDB) at a concentration of 2500 spores/mL. The spores were either from Fusarium verticilloides, Colletotrichum graminaria or Neurospora crassa. This resuspended sample represented a starting stock solution. A 0.5× dilution series was then prepared by removing 100 μL of the starting stock solution and adding it to a well in a 96 well tray containing 100 μL of spore suspension (2500 spores/mL), mixing thoroughly and then transferring 100 μL of the newly diluted cyclotide/spore suspension to a fresh well containing 100 μL of spore suspension etc., until all 12 columns of the row of sample in the 96 well tray were prepared. The final volume of the assay was then 100 μL. The plates were mixed three times in approximately five minute intervals before they were incubated at 28° C. and then were scored after 24 and 48 hours for inhibition of fungal growth. Inhibition of fungal growth was defined as little to no spore germination with no detectable hyphae growth.
# Fusarium verticilloides = experiment: Dose-response fungal growth inhibition assay; type: cell-based; settings: 2500 spores/mL in 1/2 strength PDB, 28° C., scored after 24 and 48 hours
# Protocol: as §1, §2
# Neurospora crassa = experiment: Dose-response fungal growth inhibition assay; type: cell-based; settings: 2500 spores/mL in 1/2 strength PDB, 28° C., scored after 24 and 48 hours
# Protocol: as §1, §2
# Panagrellus redivivus = experiment: Bioactivity of cyclotide 2 against the nematode Panagrellus redivivus (dose-response, % mortality); type: in vivo
# Protocol: Panagrellus was grown in basal medium and diluted in sterile water to create a stock solution concentration of 200 nematodes/50 μL (the basal media inoculum). Using a multi-channel pipette, 50 μL of the nematode stock solution was added to each well of plates containing the fractionated crude extract. Tests were performed on duplicate samples. Once the activity was established, the HPLC peaks corresponding to the active wells were purified and dose-response assays were done.
# Samples for a dose-response assay were resuspended in 40 μL and 4 wells of 8 μL, 6 μL, 4 μL and 2 μL were prepared in replicates of two. The volume was adjusted with the basal media inoculum to get a final volume of 50 μL and 200 nematodes per well. […] The percent mortality was calculated as ratio of dead nematodes against the total (living and dead) number present in the test wells.
substance,measurement,setting,value
"cyclotide 2: bioactive cyclotide purified from Viola spp. extract; SEQ ID NO:6 GIPCGESCVWIPCISAAIGCSCKSKVCYRN (cyclo(GIPCGESCVWIPCISAAIGCSCKSKVCYRN); not fully specified (bridges); also: three disulfide bonds (cystine knot), pairings not given here; listed as Viola sp.)",Score (inhibition of hyphal growth),Sclerotinia; 1.67 μM,1
same,Score (inhibition of hyphal growth),Sclerotinia; 3.33 μM,2
same,Score (inhibition of hyphal growth),Sclerotinia; 5.0 μM,4
same,Score (inhibition of hyphal growth),Sclerotinia; 6.67 μM,3
same,Activity of HPLC peak against Caenorhabditis elegans,Caenorhabditis elegans [1],specifically active
same,Replicate 1 Score (nematode development),Caenorhabditis elegans [2]; 0.81 μM,10
same,Replicate 2 Score (nematode development),Caenorhabditis elegans [2]; 0.81 μM,10
same,Replicate 1 Score (nematode development),Caenorhabditis elegans [2]; 1.62 μM,10
same,Replicate 2 Score (nematode development),Caenorhabditis elegans [2]; 1.62 μM,10
same,Replicate 1 Score (nematode development),Caenorhabditis elegans [2]; 3.24 μM,5
same,Replicate 2 Score (nematode development),Caenorhabditis elegans [2]; 3.24 μM,5
same,Replicate 1 Score (nematode development),Caenorhabditis elegans [2]; 6.48 μM,2
same,Replicate 2 Score (nematode development),Caenorhabditis elegans [2]; 6.48 μM,2
same,Replicate 1 Score (nematode development),Caenorhabditis elegans [2]; 16.2 μM,1
same,Replicate 2 Score (nematode development),Caenorhabditis elegans [2]; 16.2 μM,1
same,LD90,Caenorhabditis elegans [2]; recorded after day three,6.48 µM
same,Cyclotide concentration at which total inhibition of fungal growth is observed,[3],2.5 µM
same,Cyclotide concentration at which total inhibition of fungal growth is observed,Fusarium verticilloides,10 µM
same,Cyclotide concentration at which total inhibition of fungal growth is observed,Neurospora crassa,1.25 µM
same,Scored at 18 hrs (% mortality),Panagrellus redivivus; 10.07 μM,60%
same,Scored at 24 hrs (% mortality),Panagrellus redivivus; 10.07 μM,74%
same,Scored at 18 hrs (% mortality),Panagrellus redivivus; 20.13 μM,>60%
same,Scored at 24 hrs (% mortality),Panagrellus redivivus; 20.13 μM,78%
same,Scored at 18 hrs (% mortality),Panagrellus redivivus; 30.20 μM,70%
same,Scored at 24 hrs (% mortality),Panagrellus redivivus; 30.20 μM,80%
same,Scored at 18 hrs (% mortality),Panagrellus redivivus; 40.27 μM,85%
same,Scored at 24 hrs (% mortality),Panagrellus redivivus; 40.27 μM,90%
same,Scored at 18 hrs (% mortality),Panagrellus redivivus; 50.34 μM,85%
same,Scored at 24 hrs (% mortality),Panagrellus redivivus; 50.34 μM,95%
same,Scored at 18 hrs (% mortality),Panagrellus redivivus; 60.40 μM,90%
same,Scored at 24 hrs (% mortality),Panagrellus redivivus; 60.40 μM,~100%
same,Activity of HPLC peak against Panagrellus redivivus,Panagrellus redivivus; fractionated crude extract of Viola spp.,specifically active
same,LD90 concentration (concentration at which 90% of the nematodes are killed),Panagrellus redivivus; within 24 hrs observation time,40.27 µM
